Tests used:
Assay type in all cases: in vivo
Conditions in all cases: rated four to five weeks after treatment
[1] = test system: ZEA MAYS L.; experiment: Preemergence herbicidal evaluation, ZEAMX (Corn, Field)
Excerpt: (§1) Results of herbicide evaluation are expressed on a rating scale (0-9). The scale is based upon a visual observation of plant stand, vigor, malformation, size, chlorosis and overall plant appearance as compared with a control.
(§2) The preemergence herbicidal activity of the test compounds of the present invention is exemplified by the following tests in which the seeds of a variety of monocotyledonous and dicotyledonous plants are separately mixed with potting soil and planted on top of approximately one inch of soil in separate pint cups. After planting, the cups are sprayed with the selected aqueous acetone solution containing test compound in sufficient quantity to provide the equivalent of about 0.125 to 0.50 kg per hectare of test compound per cup. The treated cups are then placed on greenhouse benches, watered and cared for in accordance with conventional greenhouse procedures. From four to five weeks after treatment, the tests are terminated and each cup is examined and rated according to the rating system provided in Example 42.

[2] = test system: AMBROSIA ARTEMISIIFOLIA, L.; experiment: Preemergence herbicidal evaluation, AMBEL (Ragweed, Common)
Excerpt: as §1, §2

[3] = test system: ECHINOCHLOA CRUS-GALLI, (L) BEAU; experiment: Preemergence herbicidal evaluation, ECHCG (Barnyardgrass)
Excerpt: as §1, §2

[4] = test system: GLYCINE MAX(L)MERR. CV. WILLIAMS; experiment: Preemergence herbicidal evaluation, GLXMAW (Soybean, Williams)
Excerpt: as §1, §2

[5] = test system: ABUTILON THEOPHRASTI, MEDIC.; experiment: Preemergence herbicidal evaluation, ABUTH (Velvetleaf)
Excerpt: as §1, §2

[6] = test system: SETARIA VIRIDIS, (L) BEAU; experiment: Preemergence herbicidal evaluation, SETVI (Foxtail, Green)
Excerpt: as §1, §2

[7] = test system: TRITICUM AESTIVUM, CV. APOLLO; experiment: Postemergence herbicidal evaluation, TRZAWO (Wheat, Winter, CV. APOLLO)
Experimental: (§3) In the tests, seedling plants are grown in jiffy flats for about two weeks. The test compounds are dispersed in 50/50 acetone/water mixtures containing 0.5% TWEEN®20, a polyoxyethylene sorbitan monolaurate surfactant of Atlas Chemical Industries, in sufficient quantities to provide the equivalent of about 0.125 kg to 0.500 kg per hectare of active compound when applied to the plants through a spray nozzle operating at 40 psi for a predetermined time. After spraying, the plants are placed on greenhouse benches and are cared for in the usual manner, commensurate with conventional greenhouse practices. From four to five weeks after treatment, the seedling plants are examined and rated according to the rating system set forth below. Where more than one test is involved for a given compound, the data are averaged.
as §1

[8] = test system: GALIUM APARINE; experiment: Preemergence herbicidal evaluation, GALAP (Galium)
Excerpt: as §1, §2

[9] = test system: TRITICUM AESTIVUM, CV. APOLLO; experiment: Preemergence herbicidal evaluation, TRZAWO (Wheat, Winter, CV. APOLLO)
Excerpt: as §1, §2

[10] = test system: ECHINOCHLOA CRUS-GALLI, (L) BEAU; experiment: Postemergence herbicidal evaluation, ECHCG (Barnyardgrass)
Experimental: as §3, §1

[11] = test system: CHENOPODIUM ALBUM, L.; experiment: Preemergence herbicidal evaluation, CHEAL (Lambsquarters, Common)
Excerpt: as §1, §2

[12] = test system: SETARIA VIRIDIS, (L) BEAU; experiment: Postemergence herbicidal evaluation, SETVI (Foxtail, Green)
Experimental: as §3, §1

[13] = test system: IPOMOEA SPP.; experiment: Preemergence herbicidal evaluation, IPOSS (Morningglory Spp.)
Excerpt: as §1, §2

[14] = test system: ORYZA SATIVA, L. TEBONNET; experiment: Postemergence herbicidal evaluation, ORYSAT (Rice, Tebonnet)
Experimental: as §3, §1

[15] = test system: CASSIA OBTUSIFOLIA, L.; experiment: Preemergence herbicidal evaluation, CASOB (Sicklepod)
Excerpt: as §1, §2

[16] = test system: ORYZA SATIVA, L. TEBONNET; experiment: Preemergence herbicidal evaluation, ORYSAT (Rice, Tebonnet)
Excerpt: as §1, §2

[17] = test system: CASSIA OBTUSIFOLIA, L.; experiment: Postemergence herbicidal evaluation, CASOB (Sicklepod)
Experimental: as §3, §1

[18] = test system: CHENOPODIUM ALBUM, L.; experiment: Postemergence herbicidal evaluation, CHEAL (Lambsquarters, Common)
Experimental: as §3, §1

For `CCOC(=O)Cn1c(=O)n(CC(=O)OC(C)(C)C)c(=O)n(-c2ccc(F)c(N3C(=O)C4=C(CCCC4)C3=O)c2)c1=O` [Compound 8, 5-[3-(1-Cyclohexene-1,2-dicarboximido)-4-fluorophenyl]dihydro-2,4,6-trioxo-s-tri-azine-1,3(2H,4H)-diacetic acid, 1-tert-butyl, ethyl ester], the “Herbicide rating (0-9) ZEAMX” value ([1]; 0.125 kg/ha) was 0.0, the “Herbicide rating (0-9) ZEAMX” value ([1]; 0.250 kg/ha) was 0.0 and the “Herbicide rating (0-9) ZEAMX” value ([1]; 0.500 kg/ha) was 0.0. For the same compound, the “Herbicide rating (0-9) AMBEL” value ([2]; 0.125 kg/ha) was 0.0, the “Herbicide rating (0-9) AMBEL” value ([2]; 0.250 kg/ha) was 0.0 and the “Herbicide rating (0-9) AMBEL” value ([2]; 0.500 kg/ha) was 0.0. For the same compound, the “Herbicide rating (0-9) ECHCG” value ([3]; 0.125 kg/ha) was 0.0, the “Herbicide rating (0-9) ECHCG” value ([3]; 0.250 kg/ha) was 0.0 and the “Herbicide rating (0-9) ECHCG” value ([3]; 0.500 kg/ha) was 0.0. The “Herbicide rating (0-9) GLXMAW” value ([4]; 0.125 kg/ha) was 0.0, the “Herbicide rating (0-9) GLXMAW” value ([4]; 0.250 kg/ha) was 0.0 and the “Herbicide rating (0-9) GLXMAW” value ([4]; 0.500 kg/ha) was 0.0. The “Herbicide rating (0-9) ABUTH” value ([5]; 0.125 kg/ha) was 0.0, the “Herbicide rating (0-9) ABUTH” value ([5]; 0.250 kg/ha) was 0.0 and the “Herbicide rating (0-9) ABUTH” value ([5]; 0.500 kg/ha) was 0.0. The “Herbicide rating (0-9) SETVI” value ([6]; 0.125 kg/ha) was 0.0, the “Herbicide rating (0-9) SETVI” value ([6]; 0.250 kg/ha) was 0.0 and the “Herbicide rating (0-9) SETVI” value ([6]; 0.500 kg/ha) was 0.0. The “Herbicide rating (0-9) TRZAWO” value ([7]; 0.125 kg/ha) was 0.5, the “Herbicide rating (0-9) TRZAWO” value ([7]; 0.250 kg/ha) was 0.5 and the “Herbicide rating (0-9) TRZAWO” value ([7]; 0.500 kg/ha) was 0.5. For the same compound, the “Herbicide rating (0-9) GALAP” value ([8]; 0.125 kg/ha) was 0.0, the “Herbicide rating (0-9) GALAP” value ([8]; 0.250 kg/ha) was 0.0 and the “Herbicide rating (0-9) GALAP” value ([8]; 0.500 kg/ha) was 0.0. For the same compound, the “Herbicide rating (0-9) TRZAWO” value ([9]; 0.125 kg/ha) was 0.0, the “Herbicide rating (0-9) TRZAWO” value ([9]; 0.250 kg/ha) was 0.0 and the “Herbicide rating (0-9) TRZAWO” value ([9]; 0.500 kg/ha) was 0.0. The “Herbicide rating (0-9) ECHCG” value ([10]; 0.125 kg/ha) was 0.0, the “Herbicide rating (0-9) ECHCG” value ([10]; 0.250 kg/ha) was 0.0 and the “Herbicide rating (0-9) ECHCG” value ([10]; 0.500 kg/ha) was 0.0. The “Herbicide rating (0-9) CHEAL” value ([11]; 0.125 kg/ha) was 0.0, the “Herbicide rating (0-9) CHEAL” value ([11]; 0.250 kg/ha) was 0.0 and the “Herbicide rating (0-9) CHEAL” value ([11]; 0.500 kg/ha) was 0.0. For the same compound, the “Herbicide rating (0-9) SETVI” value ([12]; 0.125 kg/ha) was 0.0, the “Herbicide rating (0-9) SETVI” value ([12]; 0.250 kg/ha) was 0.0 and the “Herbicide rating (0-9) SETVI” value ([12]; 0.500 kg/ha) was 0.0. The “Herbicide rating (0-9) IPOSS” value ([13]; 0.125 kg/ha) was 0.0, the “Herbicide rating (0-9) IPOSS” value ([13]; 0.250 kg/ha) was 0.0 and the “Herbicide rating (0-9) IPOSS” value ([13]; 0.500 kg/ha) was 0.0. The “Herbicide rating (0-9) ORYSAT” value ([14]; 0.125 kg/ha) was 1.5, the “Herbicide rating (0-9) ORYSAT” value ([14]; 0.250 kg/ha) was 1.5 and the “Herbicide rating (0-9) ORYSAT” value ([14]; 0.500 kg/ha) was 1.5. For the same compound, the “Herbicide rating (0-9) CASOB” value ([15]; 0.125 kg/ha) was 0.0, the “Herbicide rating (0-9) CASOB” value ([15]; 0.250 kg/ha) was 0.0 and the “Herbicide rating (0-9) CASOB” value ([15]; 0.500 kg/ha) was 0.0. The “Herbicide rating (0-9) ORYSAT” value ([16]; 0.125 kg/ha) was 0.0, the “Herbicide rating (0-9) ORYSAT” value ([16]; 0.250 kg/ha) was 0.0 and the “Herbicide rating (0-9) ORYSAT” value ([16]; 0.500 kg/ha) was 0.0. The “Herbicide rating (0-9) CASOB” value ([17]; 0.125 kg/ha) was 0.0, the “Herbicide rating (0-9) CASOB” value ([17]; 0.250 kg/ha) was 0.0 and the “Herbicide rating (0-9) CASOB” value ([17]; 0.500 kg/ha) was 0.0.

In the case of `CC(C)OC(=O)Cn1c(=O)n(C)c(=O)n(-c2cc(N3C(=O)c4cccc(F)c4C3=O)c(F)cc2Cl)c1=O` [Compound 11, Isopropyl 3-[2-chloro-4-fluoro-5-(3-fluoro-phthalimido)phenyl]tetrahydro-5-methyl-2,4,6-trioxo-s-triazine-1(2H)-acetate], the “Herbicide rating (0-9) ZEAMX” value ([1]; 0.125 kg/ha) is reported as 0.0, the “Herbicide rating (0-9) ZEAMX” value ([1]; 0.250 kg/ha) is reported as 0.0 and the “Herbicide rating (0-9) ZEAMX” value ([1]; 0.500 kg/ha) is reported as 0.0. For the same compound, the “Herbicide rating (0-9) AMBEL” value ([2]; 0.125 kg/ha) was 0.0, the “Herbicide rating (0-9) AMBEL” value ([2]; 0.250 kg/ha) was 0.0 and the “Herbicide rating (0-9) AMBEL” value ([2]; 0.500 kg/ha) was 0.0. For the same compound, the “Herbicide rating (0-9) ECHCG” value ([3]; 0.125 kg/ha) was 0.0, the “Herbicide rating (0-9) ECHCG” value ([3]; 0.250 kg/ha) was 0.0 and the “Herbicide rating (0-9) ECHCG” value ([3]; 0.500 kg/ha) was 0.0. For the same compound, the “Herbicide rating (0-9) GLXMAW” value ([4]; 0.125 kg/ha) was 0.0, the “Herbicide rating (0-9) GLXMAW” value ([4]; 0.250 kg/ha) was 0.0 and the “Herbicide rating (0-9) GLXMAW” value ([4]; 0.500 kg/ha) was 0.0. For the same compound, the “Herbicide rating (0-9) SETVI” value ([6]; 0.125 kg/ha) was 0.0, the “Herbicide rating (0-9) SETVI” value ([6]; 0.250 kg/ha) was 0.0 and the “Herbicide rating (0-9) SETVI” value ([6]; 0.500 kg/ha) was 0.0. For the same compound, the “Herbicide rating (0-9) CHEAL” value ([18]; 0.125 kg/ha) was 9.0, the “Herbicide rating (0-9) CHEAL” value ([18]; 0.250 kg/ha) was 9.0 and the “Herbicide rating (0-9) CHEAL” value ([18]; 0.500 kg/ha) was 9.0. The “Herbicide rating (0-9) TRZAWO” value ([9]; 0.125 kg/ha) was 0.0, the “Herbicide rating (0-9) TRZAWO” value ([9]; 0.250 kg/ha) was 0.0 and the “Herbicide rating (0-9) TRZAWO” value ([9]; 0.500 kg/ha) was 0.0. The “Herbicide rating (0-9) ECHCG” value ([10]; 0.125 kg/ha) was 3.0, the “Herbicide rating (0-9) ECHCG” value ([10]; 0.250 kg/ha) was 3.0 and the “Herbicide rating (0-9) ECHCG” value ([10]; 0.500 kg/ha) was 3.0. For the same compound, the “Herbicide rating (0-9) CHEAL” value ([11]; 0.125 kg/ha) was 9.0, the “Herbicide rating (0-9) CHEAL” value ([11]; 0.250 kg/ha) was 9.0 and the “Herbicide rating (0-9) CHEAL” value ([11]; 0.500 kg/ha) was 9.0. For the same compound, the “Herbicide rating (0-9) IPOSS” value ([13]; 0.125 kg/ha) was 0.0, the “Herbicide rating (0-9) IPOSS” value ([13]; 0.250 kg/ha) was 0.0 and the “Herbicide rating (0-9) IPOSS” value ([13]; 0.500 kg/ha) was 0.0. For the same compound, the “Herbicide rating (0-9) CASOB” value ([15]; 0.125 kg/ha) was 0.0, the “Herbicide rating (0-9) CASOB” value ([15]; 0.250 kg/ha) was 0.0 and the “Herbicide rating (0-9) CASOB” value ([15]; 0.500 kg/ha) was 0.0. The “Herbicide rating (0-9) ORYSAT” value ([16]; 0.125 kg/ha) was 0.0, the “Herbicide rating (0-9) ORYSAT” value ([16]; 0.250 kg/ha) was 0.0 and the “Herbicide rating (0-9) ORYSAT” value ([16]; 0.500 kg/ha) was 0.0.

Reference: patent EP0745599A2, “1-(3-Heterocyclylphenyl)-s-triazine-2,4,6-oxo or thiotrione herbicidal agents” (American Cyanamid Company, priority 1995, dated 1996)
